The target in this assay is T1, sGC α1/β1 heterodimer stably expressed in CHO-K1 cell line (CHO-K1/sGC) (Homo sapiens, UniProt Q02108+Q02153).
T1 construct: expressed in transfected cells
T1 sequence (Q02108 1-690): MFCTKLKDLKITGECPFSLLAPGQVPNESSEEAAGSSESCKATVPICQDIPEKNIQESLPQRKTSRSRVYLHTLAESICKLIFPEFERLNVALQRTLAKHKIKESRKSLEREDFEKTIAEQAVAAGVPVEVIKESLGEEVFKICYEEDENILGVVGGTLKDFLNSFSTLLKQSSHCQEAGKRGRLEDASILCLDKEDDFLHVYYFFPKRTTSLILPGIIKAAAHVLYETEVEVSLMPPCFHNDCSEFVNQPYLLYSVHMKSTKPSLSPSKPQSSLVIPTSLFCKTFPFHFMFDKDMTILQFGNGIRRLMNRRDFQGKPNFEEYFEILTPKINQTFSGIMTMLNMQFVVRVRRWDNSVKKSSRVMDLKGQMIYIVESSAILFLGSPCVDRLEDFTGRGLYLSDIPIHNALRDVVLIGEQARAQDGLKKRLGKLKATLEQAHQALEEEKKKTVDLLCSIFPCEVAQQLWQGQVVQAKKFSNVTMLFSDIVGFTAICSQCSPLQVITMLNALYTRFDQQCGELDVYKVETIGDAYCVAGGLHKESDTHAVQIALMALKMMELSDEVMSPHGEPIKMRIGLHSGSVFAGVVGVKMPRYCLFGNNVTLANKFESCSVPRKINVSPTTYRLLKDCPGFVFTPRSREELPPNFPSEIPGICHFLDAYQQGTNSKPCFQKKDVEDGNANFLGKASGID
T1 sequence (Q02153 1-619): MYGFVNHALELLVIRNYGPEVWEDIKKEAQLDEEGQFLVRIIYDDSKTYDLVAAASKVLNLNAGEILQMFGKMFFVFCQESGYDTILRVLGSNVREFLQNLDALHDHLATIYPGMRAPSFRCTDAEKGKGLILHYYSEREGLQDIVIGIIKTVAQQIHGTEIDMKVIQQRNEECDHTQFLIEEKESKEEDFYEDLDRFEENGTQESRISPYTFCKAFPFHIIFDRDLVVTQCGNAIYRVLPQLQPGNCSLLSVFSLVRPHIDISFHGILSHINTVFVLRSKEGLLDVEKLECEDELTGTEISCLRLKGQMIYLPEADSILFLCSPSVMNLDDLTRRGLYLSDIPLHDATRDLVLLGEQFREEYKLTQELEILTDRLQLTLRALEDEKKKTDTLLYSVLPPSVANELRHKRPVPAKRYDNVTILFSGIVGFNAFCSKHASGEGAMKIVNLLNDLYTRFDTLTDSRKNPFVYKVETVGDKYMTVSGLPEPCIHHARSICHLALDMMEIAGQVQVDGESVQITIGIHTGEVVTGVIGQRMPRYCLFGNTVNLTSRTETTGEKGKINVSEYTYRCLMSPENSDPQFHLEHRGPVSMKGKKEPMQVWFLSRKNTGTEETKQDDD
The experiment in a line: Cell-based sGC Functional Assay (CASA Assay), cGMP generation. Conditions: CHO-K1/sGC cells, 1 hr at 37° C., cGMP by HTRF, 4P fit; presence or absence of 1 μM DETA-NO not given; read-out: IP (nM) (inflection point). From the text:
sGC is a heme-containing enzyme that converts GTP to secondary messenger cGMP. Increases in cGMP levels affect several physiological processes including vasorelaxation through multiple downstream pathways. […] Heme-dependent activators (HDAs) preferentially activate sGC containing a ferrous heme group. To determine the effect of sGC activators on enzyme activity, the CASA assay was developed to monitor the generation of cGMP in a cell line that stably expresses the heterodimeric sGC protein.
A CHO-K1 cell line stably expressing the sGC α1/β1 heterodimer was generated using a standard transfection protocol. CHO-K1 cells were transfected with plasmids pIREShyghsGCα1 and pIRESneo-hsGCβ1 simultaneously using FUGENE reagent. Clones that stably express both subunits were selected with hygromycin and neomycin for ˜2 weeks. Clone #7 was chosen for the assay and was designated CHO-K1/sGC. CHO-K1/sGC cells were maintained in F-K12 medium containing 10% heat-inactivated Fetal Bovine Serum (FBS), 100 μg/mL penicillin/streptomycin, 0.5 mg/mL hygromycin and 0.25 mg/mL G418. The cells were then cryopreserved in LN2. On the day of the assay, cells thawed and resuspended in EBSS Assay Buffer (Sigma, E3024) supplemented with 5 mM MgCl2, 10 mM HEPES (4-(2-hydroxyethyl)piperazine-1-ethanesulfonic acid) and 0.05% BSA (bovine serum albumin) (EAB) and cell density was then adjusted to 4×10^5/mL with EAB, IBMX (3-isobutyl-1-methylxanthin, 0.5 mM) was added to inhibit degradation of cGMP. Compounds were diluted from DMSO stock solutions and added to the assay at a final DMSO concentration of 2.5%. Cells were incubated with compounds in the presence and absence of 1 μM of Diethylenetriamine/nitric oxide adduct (DETA-NO; Sigma, 17018) for 1 hr at 37° C. At the end of the incubation period, the reaction was terminated and the cells were lysed with the detection reagents from Cisbio Kits. The level of intracellular cGMP was determined using an HTRF-based assay kit (CisBio, 62GM2PEC), which detects the displacement of a fluorescence labeled cGMP from its specific antibody. The cGMP produced by test compounds was directly compared to the maximum cGMP production (this value was set to equal 100% activation.) of the published sGC-HDA Compound A:
[drawing 300] (Example 1 in WO 2010/065275, published Jun. 10, 2010). The test compounds' activities were then expressed as a percentage of Compound A, the standard in every experiment. This percent activation was calculated either in the presence or absence of DETA-NO which was then plotted. IP and maximum fold induction was derived using ADA analysis software for 4P fit.
The compounds in the Examples of the instant invention had inflection points (IP) less than or equal to 10 μM and more particularly less than or equal to about 1 μM.
With `CC1(c2ccc(Cl)cn2)C(=O)Nc2nc(-c3cn4ncnc4c(CCCC(F)(F)F)n3)nc(N)c21` (stereo not shown) [Example 26A, 4-amino-5-(5-chloropyridin-2-yl)-5-methyl-2-(8-(4,4,4-trifluorobutyl)-[1,2,4]triazolo[1,5-a]pyrazin-6-yl)-5H-pyrrolo[2,3-d]pyriniidin-6(7H)-one], the EC50 amounted to 27.8 nM. Regarding `Nc1nc(-c2cn3ncnc3c(CCCC(F)(F)F)n2)nc2c1C(c1ccc(Cl)cn1)(C1CC1)C(=O)N2` (stereo not shown) [Example 27A, 4-amino-5-(5-chloropyridin-2-yl)-5-cyclopropyl-2-(8-(4,4,4-trifluorobutyl)-[1,2,4]triazolo[1,5-a]pyrazin-6-yl)-5H-pyrrolo[2,3-d]pyrimidin-6(7H)-one], the EC50 came out at 278 nM. As to `CC1(c2ccc(Cl)c(F)c2)C(=O)Nc2nc(-c3cn4ncnc4c(CCCC(F)(F)F)n3)nc(N)c21` (stereo not shown) [Example 28B, 4-amino-5-(4-chloro-3-fluorophenyl)-5-methyl-2-(8-(4,4,4-trifluorobutyl)-[1,2,4]triazolo[1,5-a]pyrazin-6-yl)-5H-pyrrolo[2,3-d]pyrimidin-6(7H)-one], the EC50 stood at 20 nM. In the case of `CC1(c2ccc(Cl)cc2)C(=O)Nc2nc(-c3cn4ncnc4c(CCCC(F)(F)F)n3)nc(N)c21` (stereo not shown) [Example 29A, 4-amino-5-(4-chlorophenyl)-5-methyl-2-(8-(4,4,4-trifluorobutyl)-[1,2,4]triazolo[1,5-a]pyrazin-6-yl)-5H-pyrrolo[2,3-d]pyrimidin-6(7H)-one], the EC50 was 11.4 nM. Turning to `Nc1nc(-c2cn3ncnc3c(CCCC(F)(F)F)n2)nc2c1C(c1ccc(F)cc1)(C1CC1)C(=O)N2` (stereo not shown) [Example 30B, 4-amino-5-cyclopropyl-5-(4-fluorophenyl)-2-(8-(4,4,4-trifluorobutyl)-[1,2,4]triazolo[1,5-a]pyrazin-6-yl)-5H-pyrrolo[2,3-d]pyrimidin-6(7H)-one], the EC50 came out at 36.7 nM.

As for `Nc1nc(-c2cn3ncnc3c(CCCC(F)(F)F)n2)nc2c1C(c1ccc(Cl)cc1)(C1CC1)C(=O)N2` (stereo not shown) [Example 31B, 4-amino-5-(4-chlorophenyl)-5-cyclopropyl-2-(8-(4,4,4-trifluorobutyl)-[1,2,4]triazolo[1,5-a]pyrazin-6-yl)-5H-pyrrolo[2,3-d]pyrimidin-6(7H)-one], the EC50 was determined as 13 nM. With `Nc1nc(-c2cn3ncnc3c(CCCC(F)(F)F)n2)nc2c1C(c1ccc(F)c(F)c1)(C1CC1)C(=O)N2` (stereo not shown) [Example 32A, 4-amino-5-cyclopropyl-5-(3,4-difluorophenyl)-2-(8-(4,4,4-trifluorobutyl)-[1,2,4]triazolo[1,5-a]pyrazin-6-yl)-5H-pyrrolo[2,3-d]pyrimidin-6(7H)-one], the EC50 turned out to be 77.4 nM. Then `Nc1nc(-c2cn3ncnc3c(CCCC(F)(F)F)n2)nc2c1C(c1ccc(Cl)c(F)c1)(C1CC1)C(=O)N2` (stereo not shown) [Example 33A, 4-amino-5-(4-chloro-3-fluorophenyl)-5-cyclopropyl-2-(8-(4,4,4-trifluorobutyl)-[1,2,4]triazolo[1,5-a]pyrazin-6-yl)-5H-pyrrolo[2,3-d]pyrimidin-6(7H)-one], with 5.6 nM; and `Nc1nc(-c2cn3ncnc3c(CCCC(F)(F)F)n2)nc2c1C(c1ccc(F)cn1)(C1CC1)C(=O)N2` (stereo not shown) [Example 34A, 4-amino-5-cyclopropyl-5-(5-fluoropyridin-2-yl)-2-(8-(4,4,4-trifluorobutyl)-[1,2,4]triazolo[1,5-a]pyrazin-6-yl)-5H-pyrrolo[2,3-d]pyrimidin-6(7H)-one], with 428 nM.

For `Nc1nc(-c2cn3ncnc3c(CCCC(F)(F)F)n2)nc2c1C(c1ccc(C(F)(F)F)cc1)(C1CC1)C(=O)N2` (stereo not shown) [Example 35A, 4-amino-5-cyclopropyl-2-(8-(4,4,4-trifluorobutyl)-[1,2,4]triazolo[1,5-a]pyrazin-6-yl)-5-(4-(trifluoromethyl)phenyl)-5H-pyrrolo[2,3-d]pyrimidin-6(7H)-one], the EC50 turned out to be 416 nM.

These data come from patent US9822130B2, “Triazolo-pyrazinyl derivatives useful as soluble guanylate cyclase activators” (Merck Sharp & Dohme Corp., priority 2014, dated 2017).
